This experiment relates to BDF1 mice, P388 leukemia ip, median survival T/C. Description: NCI In Vivo Anticancer Drug Screen. Data for tumor model P388 Leukemia (intraperitoneal) in B6D2F1 (BDF1) mice. The settings on record: endpoint: median survival time, higher = longer survival. The procedure, abridged: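 Survival ratio, drug arm over vehicle arm, in mice with a transplanted tumour.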
[1] abbreviates: dose: 50.0 mg/kg/injection, schedule: Q01DX009 (ip), vehicle: saline with Tween-80.
Setting [2] is: dose: 100.0 mg/kg/injection, schedule: Q04DX003 (ip), vehicle: saline with Tween-80.
The mark [3] stands for this setting: dose: 200.0 mg/kg/injection, schedule: Q04DX003 (ip), vehicle: saline with Tween-80.
The mark [4] stands for this setting: dose: 400.0 mg/kg/injection, schedule: Q04DX003 (ip), vehicle: saline with Tween-80.
[5] abbreviates: dose: 6.25 mg/kg/injection, schedule: Q01DX009 (ip), vehicle: saline with Tween-80.
Where [6] appears, read: dose: 12.5 mg/kg/injection, schedule: Q01DX009 (ip), vehicle: saline with Tween-80.
The mark [7] stands for this setting: dose: 25.0 mg/kg/injection, schedule: Q01DX009 (ip), vehicle: saline with Tween-80.
Where [8] appears, read: dose: 50.0 mg/kg/injection, schedule: Q04DX003 (ip), vehicle: saline with Tween-80.
The mark [9] stands for this setting: dose: 100.0 mg/kg/injection, schedule: Q01DX009 (ip), vehicle: saline with Tween-80.
[10] abbreviates: dose: 200.0 mg/kg/injection, schedule: Q01DX009 (ip), vehicle: saline with Tween-80.

Where “and” joins values, the source holds several entries; their conditions need not be identical. Identical values can stand only once. Toxic doses and inconclusive results are not listed.

Turning to `CCN(CCO)CC(C)Nc1ccc([N+](=O)[O-])c2sc3ccccc3c(=O)c12` (stereo not drawn), the T/C runs as follows: (dose: 33.0 mg/kg/injection, schedule: Q01DX009 (ip), vehicle: saline with Tween-80) 195 % of control; under setting [1], 177 % of control; (dose: 66.0 mg/kg/injection, schedule: Q04DX003 (ip), vehicle: saline with Tween-80) 162 % of control; (dose: 75.0 mg/kg/injection, schedule: Q01DX009 (ip), vehicle: saline with Tween-80) 95 % of control; under setting [2], 191 % of control and 200 % of control; (dose: 150.0 mg/kg/injection, schedule: Q04DX003 (ip), vehicle: saline with Tween-80) 220 % of control. Further, the T/C under setting [3] is 113 % of control and the T/C under setting [4] is 95 % of control.
As for `CC(C)=NNS(=O)(=O)c1ccc(C)cc1`, the T/C reads like this: (dose: 25.0 mg/kg/injection, schedule: Q04DX003 (ip), vehicle: Klucel (hydroxypropylcellulose) (HPC)) 106 % of control; (dose: 50.0 mg/kg/injection, schedule: Q04DX003 (ip), vehicle: Klucel (hydroxypropylcellulose) (HPC)) 106 % of control; (dose: 100.0 mg/kg/injection, schedule: Q04DX003 (ip), vehicle: Klucel (hydroxypropylcellulose) (HPC)) 111 % of control; (dose: 200.0 mg/kg/injection, schedule: Q04DX003 (ip), vehicle: Klucel (hydroxypropylcellulose) (HPC)) 111 % of control.
As to `CCOC(=O)NP(=O)(N1CC1(C)C)N1CC1(C)C` (stereo not drawn), the T/C by setting is: (dose: 31.3 mg/kg/injection, schedule: Q01DX010 (ip), vehicle: saline) 175 % of control; (dose: 62.5 mg/kg/injection, schedule: Q01DX010 (ip), vehicle: saline) 175 % of control; (dose: 125.0 mg/kg/injection, schedule: Q01DX010 (ip), vehicle: saline) 200 % of control; (dose: 250.0 mg/kg/injection, schedule: Q01DX010 (ip), vehicle: saline) 225 % of control.
For the compound `Cc1cc2c3ccccc3ccc2[n+]2ccccc12`, the T/C (dose: 4.1 mg/kg/injection, schedule: Q01DX009 (ip), vehicle: saline) is 120 % of control; the T/C (dose: 9.37 mg/kg/injection, schedule: Q01DX009 (ip), vehicle: saline) is 161 % of control; the T/C (dose: 18.75 mg/kg/injection, schedule: Q01DX009 (ip), vehicle: saline) was 171 % of control and 180 % of control; the T/C (dose: 28.12 mg/kg/injection, schedule: Q01DX009 (ip), vehicle: saline) was 190 % of control; the T/C (dose: 37.5 mg/kg/injection, schedule: Q04DX003 (ip), vehicle: alcohol) was 112 % of control.
For the compound `N#CCC(C#N)N1CCOCC1` (stereo not drawn), the T/C was 111 % of control under setting [5]; 96 % of control under setting [6]; 88 % of control under setting [7]; 104 % of control under setting [8]; 108 % of control under setting [2].
`CCCCCC(O)C1C(=O)OC(C)C(O)/C=C/C=C/C=C/C=C\C=C(\C)C(O)CC(O)CC(O)CC(O)CC(O)CC(O)CC1O` (stereo not drawn): the T/C by setting is: (dose: 2.5 mg/kg/injection, schedule: Q01DX009 (ip), vehicle: saline) 111 % of control; (dose: 5.0 mg/kg/injection, schedule: Q01DX009 (ip), vehicle: Klucel (hydroxypropylcellulose) (HPC)) 95 % of control; (dose: 10.0 mg/kg/injection, schedule: Q01DX009 (ip), vehicle: Klucel (hydroxypropylcellulose) (HPC)) 105 % of control; (dose: 20.0 mg/kg/injection, schedule: Q01DX009 (ip), vehicle: Klucel (hydroxypropylcellulose) (HPC)) 90 % of control.
On to `COc1cccc(C(=O)CC(O)(C(F)(F)F)C(F)(F)F)c1`, for which the T/C is 91 % of control (dose: 100.0 mg/kg/injection, schedule: Q01DX009 (ip), vehicle: other); 100 % of control (dose: 100.0 mg/kg/injection, schedule: Q04DX003 (ip), vehicle: other); 95 % of control (dose: 200.0 mg/kg/injection, schedule: Q01DX009 (ip), vehicle: other); 100 % of control (dose: 200.0 mg/kg/injection, schedule: Q04DX003 (ip), vehicle: other); 104 % of control (dose: 400.0 mg/kg/injection, schedule: Q01DX009 (ip), vehicle: other); 100 % of control (dose: 400.0 mg/kg/injection, schedule: Q04DX003 (ip), vehicle: other).
As to `CSc1ccc(N=C=C(c2ccccc2)c2ccccc2)cc1`, the T/C was 95 % of control under setting [5], 90 % of control under setting [6] and 90 % of control under setting [7].
With `S=C1NC2=S(N=C(Nc3ccccc3)N2c2ccccc2)S1` (stereo not drawn), the T/C was 94 % of control under setting [1], 96 % of control under setting [9] and 93 % of control under setting [10].
The matching figures for `CP12(OC(=O)c3ccccc31)OC(=O)c1ccccc12`: 91 % of control, 91 % of control and 96 % of control.
Turning to `Cn1c(=O)c2ncnnc2n(C)c1=O`, the T/C is 103 % of control (dose: 1.5 mg/kg/injection, schedule: Q01DX009 (ip), vehicle: Klucel (hydroxypropylcellulose) (HPC)); 107 % of control (dose: 3.0 mg/kg/injection, schedule: Q01DX009 (ip), vehicle: Klucel (hydroxypropylcellulose) (HPC)); 112 % of control (dose: 6.0 mg/kg/injection, schedule: Q01DX009 (ip), vehicle: Klucel (hydroxypropylcellulose) (HPC)); 250 % of control (dose: 6.25 mg/kg/injection, schedule: Q01DX009 (ip), vehicle: Klucel (hydroxypropylcellulose) (HPC)); 106 % of control (dose: 12.0 mg/kg/injection, schedule: Q01DX009 (ip), vehicle: Klucel (hydroxypropylcellulose) (HPC)); 108 % of control (dose: 12.5 mg/kg/injection, schedule: Q01DX009 (ip), vehicle: Klucel (hydroxypropylcellulose) (HPC)).
In the case of `CCCCCCC(=O)/C=C/c1cccc(Cl)c1`, the T/C (dose: 100.0 mg/kg/injection, schedule: Q04DX003 (ip), vehicle: saline) is 88 % of control and the T/C (dose: 400.0 mg/kg/injection, schedule: Q04DX003 (ip), vehicle: saline) is 100 % of control.
For `C=C(C)C(N)C(=O)O` (stereo not drawn), the T/C is, setting by setting: under setting [2], 118 % of control; under setting [3], 104 % of control; under setting [4], 118 % of control.
For `CCN(CC)Cc1cc(Nc2cc(C)nc(Nc3ccc(Cl)c(Cl)c3)n2)ccc1OC`, the T/C is 110 % of control (dose: 12.5 mg/kg/injection, schedule: Q04DX003 (ip), vehicle: saline with Tween-80); 110 % of control (dose: 25.0 mg/kg/injection, schedule: Q04DX003 (ip), vehicle: saline with Tween-80); 110 % of control under setting [8].
Turning to `O=c1[nH]c2nccnc2[nH]1`, the T/C was 93 % of control and 99 % of control (dose: 12.5 mg/kg/injection, schedule: Q01DX009 (ip), vehicle: water); 90 % of control and 104 % of control (dose: 25.0 mg/kg/injection, schedule: Q01DX009 (ip), vehicle: water); 97 % of control (dose: 50.0 mg/kg/injection, schedule: Q01DX009 (ip), vehicle: water); 107 % of control (dose: 50.0 mg/kg/injection, schedule: Q04DX003 (ip), vehicle: water); 89 % of control and 101 % of control and 109 % of control (dose: 100.0 mg/kg/injection, schedule: Q01DX009 (ip), vehicle: water); 105 % of control (dose: 100.0 mg/kg/injection, schedule: Q04DX003 (ip), vehicle: water). The T/C is 107 % of control (dose: 200.0 mg/kg/injection, schedule: Q04DX003 (ip), vehicle: water) and 116 % of control (dose: 400.0 mg/kg/injection, schedule: Q04DX003 (ip), vehicle: water).
In the case of `CCCCCCCCC(=O)Nc1ncnc2n[nH]nc12`, the T/C reads like this: under setting [5], 87 % of control; under setting [6], 90 % of control; under setting [7], 102 % of control; under setting [1], 109 % of control.
`COc1cccc2c1C(=O)c1c(O)c3c(c(O)c1C2=O)CC(O)(C(=O)CO)CC3OC1CC(N)C(O)C(C)O1` (stereo not drawn): the T/C was 234 % of control (dose: 1.73 mg/kg/injection, schedule: Q01DX004 (ip), vehicle: water); 246 % of control (dose: 2.88 mg/kg/injection, schedule: Q01DX004 (ip), vehicle: water); 283 % of control (dose: 4.8 mg/kg/injection, schedule: Q01DX004 (ip), vehicle: water); 158 % of control (dose: 6.48 mg/kg/injection, schedule: Q04DX003 (ip), vehicle: saline); 169 % of control (dose: 10.8 mg/kg/injection, schedule: Q04DX003 (ip), vehicle: saline); 187 % of control (dose: 18.0 mg/kg/injection, schedule: Q04DX003 (ip), vehicle: saline). In addition, the T/C (dose: 30.0 mg/kg/injection, schedule: Q04DX003 (ip), vehicle: saline) was 116 % of control.

The values are drawn from PubChem BioAssay AID328 (DTP/NCI, 2004).
